Two compounds from US8597618B1, “Dentifrice composition” (Toms's of Maine, Inc., priority 2012, dated 2013) can be followed below.

Where two headings read alike, the source gives them in different places.

Series [1] concerns EpiOral ORL-200 model. In words: EpiOral in Vitro Irritation Test Method (EpiOral ORL-200 model). The conditions noted are these: for ET-50 Time: time at which 50% of cells are viable, test terminated at 240 minutes.
Method: (§1) To evaluate the potential irritancy of the dentifrice formulae, surfactant components were diluted in water and tested using an EpiOral in Vitro Irritation Test Method, in particular the EpiOral ORL-200 model, a known model for testing irritant potential of dentifrice components.
(§2) In the EpiOral test, the dentifrice components were tested to determine the parameter “ET-50” which represents the time at which 50% of cells are viable: the higher the ET-50 time then the less irritating the material.
(§3) Dentifrice compositions incorporating different surfactant systems were also subjected to the EpiOral test.
Series [2] in a line: Foaming capability of individual surfactant components admixed with water and agitated. Type of series: physicochemical. The conditions noted are these: for Foaming ability: numerical score, 1 representing an excellent foamer and 5 a poor foamer. The method, then: The foaming ability was determined by a numerical score, 1 representing an excellent foamer and 5 representing a poor foamer

In series [3] the test system is EpiOral ORL-200 model.
Method: as §1, §2, §3

As to `CCCCCCCCCCCCOS(=O)(=O)[O-].[Na+]` [Sodium lauryl sulfate, sodium lauryl sulfate], the “ET-50 Time” value was 115.4 min in the series on EpiOral ORL-200 model [1] (surfactant component 1 wt % in water) and 48.3 min with EpiOral ORL-200 model [1] (surfactant component 2 wt % in water). For the same compound, in the series on EpiOral ORL-200 model [1] (surfactant components in water at different concentrations, in words), the potential irritancy entry is on record as “high”. For the same compound, in series [2], the Foaming ability is given as 1.

Regarding lauryl glucoside, in the series with EpiOral ORL-200 model [3], the “ET-50 Time” value was above 240 min and the potential irritancy entry was “very low”. In series [2] (individual surfactant components, in words), the “foaming ability as compared to sodium lauryl sulfate” value was “significantly poorer”. This compound registered a Foaming ability in series [2] of 3.
